Laboratory results from patent US11028079B2 (ConverGene LLC, priority 2015, dated 2021).
Values belong to the molecule of their own block, whether it stands above or below them.

Target: T1, BRD4 bromodomains (Homo sapiens, UniProt O60885)
T1 construct: fused on or other part: T7 phage capsid protein (phage-display fusion; the phage DNA is read out by qPCR)
Test: BROMOscan bromodomain competition binding assay (DiscoveRx)
Conditions: Kd from 11 compound concentrations ranging from 0 to 10 μM, read-out: BROMOscan Relative Activity
Procedure, shortened: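 Compounds in 0.1% DMSO/0.9% MEG competed with a solid-phase acetylated peptide for T7 phage-fused BRD4 bromodomains, with the retained bromodomain measured by qPCR.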

SMILES: CN(C)CCN1CCN(c2nc(NCc3cccc(Cl)c3)c3cc(-c4ccn(C)c(=O)c4)ccc3n2)CC1 [Example 116, 4-(4-((3-chlorobenzyl)amino)-2-(4-(2-(dimethylamino)ethyl)piperazin-1-yl)quinazolin-6-yl)-1-methylpyridin-2(1H)-one]
Kd: > 5000 nM

SMILES: Cc1noc(C)c1-c1ccc2nc(N3CCN(CC(N)=O)CC3)nc(NCc3cncc(Cl)c3)c2c1 [Example 117, 2-(4-(4-(((5-chloropyridin-3-yl)methyl)amino)-6-(3,5-dimethylisoxazol-4-yl)quinazolin-2-yl)piperazin-1-yl)acetamide]
Kd: < 500 nM

SMILES: Cn1cc(-c2ccc3nc(N4CCN(CCO)CC4)nc(NCc4cccc(Cl)c4)c3c2)ccc1=O [Example 121, 5-(4-((3-chlorobenzyl)amino)-2-(4-(2-hydroxyethyl)piperazin-1-yl)quinazolin-6-yl)-1-methylpyridin-2(1H)-one]
Kd: < 500 nM

SMILES: CN(C)CCCN1CCN(c2nc(NCc3cccc(Cl)c3)c3cc(-c4ccc(=O)n(C)c4)ccc3n2)CC1 [Example 123, 5-(4-((3-chlorobenzyl)amino)-2-(4-(3-(dimethylamino)propyl)piperazin-1-yl)quinazolin-6-yl)-1-methylpyridin-2(1H)-one]
Kd: < 500 nM

SMILES: CN(C)CCN1CCN(c2nc(NCc3cncc(Cl)c3)c3cc(-c4ccc(=O)n(C)c4)ccc3n2)CC1 [Example 124, 5-(4-(((5-chloropyridin-3-yl)methyl)amino)-2-(4-(2-(dimethylamino)ethyl)piperazin-1-yl)quinazolin-6-yl)-1-methylpyridin-2(1H)-one]
Kd: < 500 nM

SMILES: CN(C)CCCN1CCN(c2nc(NCc3cncc(Cl)c3)c3cc(-c4ccc(=O)n(C)c4)ccc3n2)CC1 [Example 125, 5-(4-(((5-chloropyridin-3-yl)methyl)amino)-2-(4-(3-(dimethylamino)propyl)piperazin-1-yl)quinazolin-6-yl)-1-methylpyridin-2(1H)-one]
Kd: < 500 nM

SMILES: CN(C)C(=O)CN1CCN(c2nc(NCc3cncc(Cl)c3)c3cc(-c4ccc(=O)n(C)c4)ccc3n2)CC1 [Example 129, 2-(4-(4-(((5-chloropyridin-3-yl)methyl)amino)-6-(1-methyl-6-oxo-1,6-dihydropyridin-3-yl)quinazolin-2-yl)piperazin-1-yl)-N,N-dimethylacetamide]
Kd: < 500 nM

SMILES: Cc1noc(C)c1-c1ccc2nc(N3CCN(CCCN(C)C)CC3)nc(NCc3cncc(Cl)c3)c2c1 [Example 130, N-((5-chloropyridin-3-yl)methyl)-2-(4-(3-(dimethylamino)propyl)piperazin-1-yl)-6-(3,5-dimethylisoxazol-4-yl)quinazolin-4-amine]
Kd: < 500 nM

SMILES: Cc1noc(C)c1-c1ccc2nc(N3CCN(C(=O)CO)CC3)nc(NCc3cncc(Cl)c3)c2c1 [Example 132, 1-(4-(4-(((5-chloropyridin-3-yl)methyl)amino)-6-(3,5-dimethylisoxazol-4-yl)quinazolin-2-yl)piperazin-1-yl)-2-hydroxyethanone]
Kd: < 500 nM

SMILES: Cn1cc(-c2ccc3nc(N4CCN(C(=O)CN)CC4)nc(NCc4cncc(Cl)c4)c3c2)ccc1=O [Example 133, 5-(2-(4-(2-aminoacetyl)piperazin-1-yl)-4-(((5-chloropyridin-3-yl)methyl)amino)quinazolin-6-yl)-1-methylpyridin-2(1H)-one]
Kd: < 500 nM

SMILES: Cn1cc(-c2ccc3nc(N4CCN(CC(C)(C)O)CC4)nc(NCc4cccc(Cl)c4)c3c2)ccc1=O [Example 134, 5-(4-((3-chlorobenzyl)amino)-2-(4-(2-hydroxy-2-methylpropyl)piperazin-1-yl)quinazolin-6-yl)-1-methylpyridin-2(1H)-one]
Kd: < 500 nM

SMILES: Cn1cc(-c2ccc3nc(N4CCN(CC(C)(C)O)CC4)nc(NCc4cncc(Cl)c4)c3c2)ccc1=O [Example 135, 5-(4-(((5-chloropyridin-3-yl)methyl)amino)-2-(4-(2-hydroxy-2-methylpropyl)piperazin-1-yl)quinazolin-6-yl)-1-methylpyridin-2(1H)-one]
Kd: < 500 nM

SMILES: Cc1noc(C)c1-c1ccc2nc(-c3cnn(C(C)(C)CO)c3)nc(NCc3cncc(Cl)c3)c2c1 [Example 138, 2-(4-(4-(((5-chloropyridin-3-yl)methyl)amino)-6-(3,5-dimethylisoxazol-4-yl)quinazolin-2-yl)-1H-pyrazol-1-yl)-2-methylpropan-1-ol]
Kd: < 500 nM

SMILES: Cc1noc(C)c1-c1ccc2nc(-c3cnn(CC(C)(C)O)c3)nc(NCc3cncc(Cl)c3)c2c1 [Example 139, 1-(4-(4-(((5-chloropyridin-3-yl)methyl)amino)-6-(3,5-dimethylisoxazol-4-yl)quinazolin-2-yl)-1H-pyrazol-1-yl)-2-methylpropan-2-ol]
Kd: < 500 nM

SMILES: Cc1noc(C)c1-c1ccc2nc(-c3cnn(CC(=O)N(C)C)c3)nc(NCc3cncc(Cl)c3)c2c1 [Example 140, 2-(4-(4-(((5-chloropyridin-3-yl)methyl)amino)-6-(3,5-dimethylisoxazol-4-yl)quinazolin-2-yl)-1H-pyrazol-1-yl)-N,N-dimethylacetamide]
Kd: < 500 nM

SMILES: Cc1noc(C)c1-c1ccc2nc(-c3cnn(CC(N)=O)c3)nc(NCc3cncc(Cl)c3)c2c1 [Example 142, 2-(4-(4-(((5-chloropyridin-3-yl)methyl)amino)-6-(3,5-dimethylisoxazol-4-yl)quinazolin-2-yl)-1H-pyrazol-1-yl)acetamide]
Kd: < 500 nM

Continued, values first:

Kd: > 5000 nM
SMILES: Cn1cc(-c2ccc3nc(Cl)nc(NCc4cncc(Cl)c4)c3c2)ccc1=O [Example 113, 5-(2-chloro-4-(((5-chloropyridin-3-yl)methyl)amino)quinazolin-6-yl)-1-methylpyridin-2(1H)-one]

Kd: 500 to 5000 nM
SMILES: Cn1cc(-c2ccc3nc(-c4cnn(CCO)c4)nc(NCc4cccc(Cl)c4)c3c2)ccc1=O [Example 114, 5-(4-((3-chlorobenzyl)amino)-2-(1-(2-hydroxyethyl)-1H-pyrazol-4-yl)quinazolin-6-yl)-1-methylpyridin-2(1H)-one]

Kd: < 500 nM
SMILES: Cc1cncc(CNc2nc(N3CCN(CCN(C)C)CC3)nc3ccc(-c4c(C)noc4C)cc23)c1 [Example 115, 2-(4-(2-(dimethylamino)ethyl)piperazin-1-yl)-6-(3,5-dimethylisoxazol-4-yl)-N-((5-methylpyridin-3-yl)methyl)quinazolin-4-amine]

Kd: < 500 nM
SMILES: CNC(=O)CN1CCN(c2nc(NCc3cncc(Cl)c3)c3cc(-c4c(C)noc4C)ccc3n2)CC1 [Example 118, 2-(4-(4-(((5-chloropyridin-3-yl)methyl)amino)-6-(3,5-dimethylisoxazol-4-yl)quinazolin-2-yl)piperazin-1-yl)-N-methylacetamide]

Kd: < 500 nM
SMILES: Cc1noc(C)c1-c1ccc2nc(N3CCN(CC(=O)N(C)C)CC3)nc(NCc3cncc(Cl)c3)c2c1 [Example 119, 2-(4-(4-(((5-chloropyridin-3-yl)methyl)amino)-6-(3,5-dimethylisoxazol-4-yl)quinazolin-2-yl)piperazin-1-yl)-N,N-dimethylacetamide]

Kd: < 500 nM
SMILES: Cc1noc(C)c1-c1ccc2nc(N3CCN(CCO)CC3)nc(NCc3cncc(Cl)c3)c2c1 [Example 120, 2-(4-(4-(((5-chloropyridin-3-yl)methyl)amino)-6-(3,5-dimethylisoxazol-4-yl)quinazolin-2-yl)piperazin-1-yl)ethanol]

Kd: < 500 nM
SMILES: Cn1cc(C(=O)N2CCN(c3nc(NCc4cccc(Cl)c4)c4cc(-c5ccc(=O)n(C)c5)ccc4n3)CC2)cn1 [Example 122, 5-(4-((3-chlorobenzyl)amino)-2-(4-(1-methyl-1H-pyrazole-4-carbonyl)piperazin-1-yl)quinazolin-6-yl)-1-methylpyridin-2(1H)-one]

Kd: < 500 nM
SMILES: Cn1cc(-c2ccc3nc(N4CCN(CCO)CC4)nc(NCc4cncc(Cl)c4)c3c2)ccc1=O [Example 126, 5-(4-(((5-chloropyridin-3-yl)methyl)amino)-2-(4-(2-hydroxyethyl)piperazin-1-yl)quinazolin-6-yl)-1-methylpyridin-2(1H)-one]

Kd: < 500 nM
SMILES: Cn1cc(-c2ccc3nc(N4CCN(CC(N)=O)CC4)nc(NCc4cncc(Cl)c4)c3c2)ccc1=O [Example 127, 2-(4-(4-(((5-chloropyridin-3-yl)methyl)amino)-6-(1-methyl-6-oxo-1,6-dihydropyridin-3-yl)quinazolin-2-yl)piperazin-1-yl)acetamide]

Kd: < 500 nM
SMILES: CNC(=O)CN1CCN(c2nc(NCc3cncc(Cl)c3)c3cc(-c4ccc(=O)n(C)c4)ccc3n2)CC1 [Example 128, 2-(4-(4-(((5-chloropyridin-3-yl)methyl)amino)-6-(1-methyl-6-oxo-1,6-dihydropyridin-3-yl)quinazolin-2-yl)piperazin-1-yl)-N-methylacetamide]

Kd: < 500 nM
SMILES: Cc1noc(C)c1-c1ccc2nc(N3CCN(C(=O)CN)CC3)nc(NCc3cncc(Cl)c3)c2c1 [Example 131, 2-amino-1-(4-(4-(((5-chloropyridin-3-yl)methyl)amino)-6-(3,5-dimethylisoxazol-4-yl)quinazolin-2-yl)piperazin-1-yl)ethanone]

Kd: < 500 nM
SMILES: Cc1noc(C)c1-c1ccc2nc(N3CCN(CC(C)(C)O)CC3)nc(NCc3cncc(Cl)c3)c2c1 [Example 136, 1-(4-(4-(((5-chloropyridin-3-yl)methyl)amino)-6-(3,5-dimethylisoxazol-4-yl)quinazolin-2-yl)piperazin-1-yl)-2-methylpropan-2-ol]

Kd: 500 to 5000 nM
SMILES: Cc1noc(C)c1-c1ccc2nc(N3CCN(CC(C)(C)O)CC3)nc(NCc3cccc(Cl)c3)c2c1 [Example 137, 1-(4-(4-((3-chlorobenzyl)amino)-6-(3,5-dimethylisoxazol-4-yl)quinazolin-2-yl)piperazin-1-yl)-2-methylpropan-2-ol]

Kd: < 500 nM
SMILES: CNC(=O)Cn1cc(-c2nc(NCc3cncc(Cl)c3)c3cc(-c4c(C)noc4C)ccc3n2)cn1 [Example 141, 2-(4-(4-(((5-chloropyridin-3-yl)methyl)amino)-6-(3,5-dimethylisoxazol-4-yl)quinazolin-2-yl)-1H-pyrazol-1-yl)-N-methylacetamide]
